Our source for the ED50 values is patent publication US4835161A, “Anti-histaminic compositions containing n-heterocyclyl-4-piperidinamines” (Janssen Pharmaceutica N.V., priority 1987, dated 1989).

SMILES strings stand for the structures.

This experiment concerns compound 48/80-induced lethality. The experiment is described as follows: Protection of rats from compound 48/80-induced lethality. Type of experiment: in vivo, rat (male, inbred Wistar strain). As to conditions: Rattus norvegicus; subcutaneous or oral; 1 h before compound 48/80 0.5 mg/kg i.v.; survival after 4 h; dose protecting 50% of animals; read-out: compound 48/80 lethality test in rats-ED50. Here is the method:
Protection of rats from compound 48/80-induced lethality
The protection from compound 48/80-induced lethal circulatory collapse appears to be a simple way of evaluating quantitatively the antihistaminic activity of test compounds. Male rats of an inbred Wistar strain, weighing 240-260 g were used in the experiment. After overnight starvation the rats were transferred to conditioned laboratories (temp.=21±1° C., relative humidity=65±5%). The rats were treated subcutaneously or orally with a test compound or with the solvent (NaCl solution, 0.9%). One hour after treatment there was injected intravenously compound 48/80, freshly dissolved in water, at a dose of 0.5 mg/kg (0.2 ml/100 g of body weight). […] Survival after 4 hours is therefore considered to be a safe criterion of a protective effect of drug administration. Said ED50 -values are the values in mg/kg body weight at which the tested compounds protect 50% of the tested animals against compound 48/80-induced lethality.

For the compound `Fc1ccc(Cn2c(NC3CCNCC3)nc3cccnc32)cc1` [compound 123], the ED50 was 0.08 mg/kg.

On to `Fc1ccc(Cn2c(NC3CCNCC3)nc3ncccc32)cc1` [compound 135], for which the ED50 was 0.01 mg/kg.

For the compound `c1coc(Cn2c(NC3CCNCC3)nc3cccnc32)c1` [compound 140, 3-(2-furanylmethyl)-N-(4-piperidinyl)-3H-imidazo[4,5-b]pyridin-2-amine], the ED50 was determined as 0.08 mg/kg.

On to `Cc1ccc(Cn2c(NC3CCNCC3)nc3cccnc32)o1` [compound 166, 3-[(5-methyl-2-furanyl)methyl]-N-(4-piperidinyl)-3H-imidazo[4,5-b]pyridin-2-amine], for which the ED50 turned out to be 0.04 mg/kg.
